Source: patent US5648336A (University of Colorado, priority 1994, dated 1997)
Like-named read-outs stand apart in the source and are kept apart here. Square brackets hold non-standard residues; d marks the D form. Peptide text beside a SMILES is read from it. * marks the point of attachment. Adamantane1carbonyl = O=C(C12CC3CC(CC(C3)C1)C2)*; Oic = O=C(O)[C@@H]1C[C@@H]2CCCC[C@@H]2N1; dIgl = N[C@@H](C(=O)O)C1Cc2ccccc2C1; Hyp = O=C(O)[C@@H]1C[C@@H](O)CN1

Columns and labels:
B2 receptors = B2 receptors (Canis lupus familiaris, UniProt Q9BDQ4); conditions: anaesthetized dog, i.v. infusion, BK challenge, n=3
Sequence of B2 receptors (Q9BDQ4 1-392): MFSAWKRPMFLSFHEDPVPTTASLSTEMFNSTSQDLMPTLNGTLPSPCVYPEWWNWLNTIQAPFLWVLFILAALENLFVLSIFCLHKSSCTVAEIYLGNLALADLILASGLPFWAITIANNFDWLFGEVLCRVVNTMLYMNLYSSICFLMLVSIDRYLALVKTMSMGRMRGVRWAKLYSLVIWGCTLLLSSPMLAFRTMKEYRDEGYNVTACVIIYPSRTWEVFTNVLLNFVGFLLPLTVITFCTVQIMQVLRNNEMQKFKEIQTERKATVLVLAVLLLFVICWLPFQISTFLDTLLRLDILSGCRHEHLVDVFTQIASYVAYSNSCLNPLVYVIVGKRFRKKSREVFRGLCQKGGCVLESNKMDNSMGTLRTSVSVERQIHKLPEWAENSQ
Procedure: Mongrel dogs of either sex, weight range 10-15 kg were used. These were anaesthetized with pentobarbital, 30 mg/kg i.v., and catheters were placed in one femoral artery and both femoral veins for the recording of blood pressure and infusion and injection of compounds.

B1 receptors [1] = molecular target: T1, B1 receptors (Oryctolagus cuniculus, UniProt P48748); assay: B1 receptor bioassay, rabbit aorta strips contracted with des-Arg9-BK; assay type: cell-based; conditions: 50% reduction of sustained contraction to 10^-7 M des-Arg9-BK; read-out: Rabbit Aorta p IC50 B1 receptors (converted)
T1 construct: The thorax was opened and the thoracic aorta carefully removed; from tissue; host or cells: rabbit thoracic aorta spiral strips
T1 sequence (P48748 1-352): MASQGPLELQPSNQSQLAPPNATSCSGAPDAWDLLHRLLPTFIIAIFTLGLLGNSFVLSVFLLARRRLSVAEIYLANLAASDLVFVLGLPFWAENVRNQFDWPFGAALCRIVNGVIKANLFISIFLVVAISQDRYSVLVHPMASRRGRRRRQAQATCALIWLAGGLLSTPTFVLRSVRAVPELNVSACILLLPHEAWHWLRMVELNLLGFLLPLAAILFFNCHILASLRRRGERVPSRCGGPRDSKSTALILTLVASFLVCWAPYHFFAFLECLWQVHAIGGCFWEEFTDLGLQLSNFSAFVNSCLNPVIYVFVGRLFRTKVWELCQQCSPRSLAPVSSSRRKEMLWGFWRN
Procedure: Male New Zealand white rabbits, weight range 2-3 kg, were killed by an overdose of pentobarbital i.v. The thorax was opened and the thoracic aorta carefully removed. […] The tissues were placed under 1 gm isometric tension and allowed to equilibrate for 1H. At time 1h, a concentration-effect curve was constructed to the selective B1 agonist des-Arg^9 -BK. This was repeated at time 3 hours. […] Once the contraction was sustained, the compound to be assayed was applied to the tissue bath in a cumulative manner. The concentration of the compound which produced a 50% reduction of the sustained contraction was calculated. The negative logarithm of this concentration was calculated and expressed as the […].

guinea pig ileum = tested on: guinea pig ileum
Excerpt: (§1) A change of one unit of pA2 value represents an order of magnitude change in potency.
(§2) On isolated smooth muscles, agonist potency is given as percent of BK potency; antagonist potency is given as pA2, and is underlined. In blood pressure assays, the number is the dose of peptide in micrograms that causes 50% reduction in the effect of BK intraarterially administered as a bolus mixture in a 500 g male rat; Ag indicates unquantitated agonist activity; Ant indicates unquantitated antagonist activity.

isolated rat uterus = tested on: isolated rat uterus
Excerpt: as §1, §2

B1 receptors [2] = molecular target: T2, B1 receptors (Canis lupus familiaris, UniProt Q9BDQ5); assay: Dog blood pressure, hypotensive response to des-Arg9-BK; assay type: in vivo; conditions: anaesthetized dog, i.v. infusion, des-Arg9-BK challenge, n=3
T2 construct: Mongrel dogs of either sex, weight range 10-15 kg were used; from tissue; host or cells: anaesthetized mongrel dog, whole animal
T2 sequence (Q9BDQ5 1-350): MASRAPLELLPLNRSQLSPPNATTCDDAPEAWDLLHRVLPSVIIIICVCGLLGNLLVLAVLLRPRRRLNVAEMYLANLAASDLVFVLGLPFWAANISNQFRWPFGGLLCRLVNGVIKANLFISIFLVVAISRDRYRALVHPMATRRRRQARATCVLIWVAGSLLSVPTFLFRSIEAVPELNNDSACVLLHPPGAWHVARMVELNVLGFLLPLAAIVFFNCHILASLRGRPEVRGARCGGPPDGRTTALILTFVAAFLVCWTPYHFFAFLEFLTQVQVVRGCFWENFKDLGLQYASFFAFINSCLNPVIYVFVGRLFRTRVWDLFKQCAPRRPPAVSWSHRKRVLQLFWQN

[3] = tested on: hypotensive action of bradykinin; assay: Blood pressure in the anesthetized rat: inhibition of hypotensive action of bradykinin; assay type: in vivo; conditions: intraarterial bolus mixture with BK, 500 g male rat; indicated approximately
Excerpt: Potencies for the antagonists in this assay are not reported precisely, but rather are indicated approximately.
as §2

Human B2 receptors = molecular target: T3, Human B2 receptors (Homo sapiens, UniProt P30411); assay: Human B2 binding, cloned receptor in CHO cell membranes, 3H-bradykinin; conditions: CHO clone S34f membranes, 0.3 nM 3H-Bradykinin, room temperature 45 min; read-out: Human Receptor Clone B2 receptor binding (Ki) (converted)
T3 construct: expressed in transfected cells; membranes used
T3 sequence (P30411 1-364 isoform P30411-2): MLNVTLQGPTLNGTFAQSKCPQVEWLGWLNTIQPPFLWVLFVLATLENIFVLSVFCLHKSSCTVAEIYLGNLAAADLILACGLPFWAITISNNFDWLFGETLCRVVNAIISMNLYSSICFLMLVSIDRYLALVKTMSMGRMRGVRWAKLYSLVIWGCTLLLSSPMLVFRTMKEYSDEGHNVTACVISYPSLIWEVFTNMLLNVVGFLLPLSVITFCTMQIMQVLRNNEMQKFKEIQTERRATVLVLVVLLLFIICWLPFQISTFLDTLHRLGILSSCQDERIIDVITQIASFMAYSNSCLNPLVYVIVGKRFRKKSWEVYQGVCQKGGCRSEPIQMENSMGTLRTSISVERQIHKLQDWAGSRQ
Excerpt: Human B2 receptors were cloned and expressed in Chinese hamster ovary cells. RNA was isolated from human lung fibroblasts (CCD-16 LU obtained from the ATCC) using the method of Chirgwin et al (Biochemistry 18:5294 (1979)). The RNA was transcribed into cDNA using MMLV reverse transcriptase, the primer […] and the procedure of Maniatis (Molecular Cloning Cold Spring Harbor Laboratory (1982)). The human B2 receptor cDNA was selectively amplified using nested PCR. The first round PCR used the two primers […] and […] and Taq DNA polymerase (Promega). Twenty-five rounds of PCR were done using the following conditions: 94° C., 1 minute for denaturation, 50° C., 1 minute for annealing followed by 72° C., 3 minutes for extension. Excess primers were removed with a Centricon 30 miniconcentrator. A portion of this first round reaction was used as a template in a second round of PCR using the following primers […] and […]. The number of rounds of PCR and the conditions were the same as those used for the first round. The DNA obtained after this second round was digested with the restriction enzymes Hind III and Xba I using standard methodology. Cesium chloride-purified pRc/CMV (Invitrogen) was also digested with Hind III and Xba I using standard methodology. The products of the two digests were resolved on a 1% low melt agarose gel. The human B2 receptor DNA (approximately 1.1 kb) and the pRc/CMV DNA (approximately 5.5 kb) were excised from the gel. The gel slices containing these DNAs were heated at 65° C. and aliquots combined in a reaction containing T4 DNA ligase. The reaction was incubated overnight at 15° C.
An aliquot of this reaction was used to transform frozen competent E. coli DH5α cells (GibcoBRL). Transformants containing the human B2 receptor DNA were selected on LB+amp plates. One of the transformants was selected and the sequence of the human B2 receptor DNA insert determined using the Sequenase enzyme (United States Biochemical) according to the manufacturer's instructions. This sequence was compared to the sequence of Hess et al (Biochemical and Biophysical Research Communications 184:260 1992)). […] The human BK2 receptor-pRc/CMV plasmid was transfected into CHO-k1 cells using the Lipofectamine reagent (GibcoBRL).
Cells containing the receptor were grown to confluence and harvested by scraping into PBS and homogenized. Membranes were prepared by centrifugation in 25 mM TES pH6.8 containing 1 mM 1.10 Phenanthroline. The final pellet was resuspended in assay buffer (25 mM TES, 1 mM 1.10 Phenanthroline, 1 mM DTT, […] Captopril, 0.1% BSA pH=6.8) and frozen. […] Incubation was carried out at room temperature for 45 min. The assay was terminated by filtration through a polyethylenimine soaked G-A filter. Radioactivity was measured on a Wallac 1450 MicroBeta LSC.
The Kd for the receptor was determined by kinetic analysis of on and off rates utilizing a single exponential decay off rate. Ki 's for compounds were calculated using the following equation: Ki =IC50 /(1+[L]/Kd), where L=free ligand concentration.

[4] = guinea pig ileum, vs double ED50 dose of bradykinin

Compound | Mean ED50, B2 receptor-mediated hypotensive response (B2 receptors) | IC50 (B1 receptors [1]) | Ileum Activity, antagonist potency given as pA2 (guinea pig ileum) | Uterus Activity, antagonist potency given as pA2 (isolated rat uterus) | Mean ED50, B1 receptor-mediated hypotensive response (B1 receptors [2]) | Blood Pressure: dose of peptide that causes 50% reduction in the effect of BK [3] | Ileum Activity, antagonist potency given as pA2 (guinea pig ileum; [4]) | Uterus Activity, agonist potency given as percent of BK potency (isolated rat uterus; isolated rat uterus) | Ki (Human B2 receptors)
N=C(N)NCCC[C@@H](N)C(=O)N[C@@H](CCCNC(=N)N)C(=O)N1CCC[C@H]1C(=O)N1C[C@H](O)C[C@H]1C(=O)NCC(=O)N[C@H](C(=O)N[C@@H](CO)C(=O)N[C@@H](C(=O)N1[C@H](C(=O)N[C@@H](CCCNC(=N)N)C(=O)O)C[C@@H]2CCCC[C@@H]21)C1Cc2ccccc2C1)C1Cc2ccccc2C1 [Compound 1, DArg-Arg-Pro-Hyp-Gly-Iglb-Ser-DIglb-O ic-Arg] | 0.03 mg/kg/min | 251 nM | 7.9 | 8.5 | 0.24 mg/kg/min |  |  |  | 
N=C(N)NCCC[C@@H](N)C(=O)N[C@@H](CCCNC(=N)N)C(=O)N1CCC[C@H]1C(=O)N1C[C@H](O)C[C@H]1C(=O)NCC(=O)N[C@@H](Cc1cccs1)C(=O)N[C@@H](CO)C(=O)N[C@@H](C(=O)N1[C@H](C(=O)N[C@@H](CCCNC(=N)N)C(=O)O)C[C@@H]2CCCC[C@@H]21)C1Cc2ccccc2C1 [Compound 7, DArg-Arg-Pro-Hyp-Gly-Thi-Ser-DIglb-Oic-Arg] | 0.17 mg/kg/min | 141 nM | 7.4 |  | 0.35 mg/kg/min |  |  |  | 
N=C(N)NCCC[C@@H](N)C(=O)N[C@@H](CCCNC(=N)N)C(=O)N1CCC[C@H]1C(=O)N1C[C@H](O)C[C@H]1C(=O)NCC(=O)N[C@@H](Cc1cccs1)C(=O)N[C@@H](CO)C(=O)N[C@@H](C(=O)N(CC(=O)N[C@@H](CCCNC(=N)N)C(=O)O)C1Cc2ccccc2C1)C1Cc2ccccc2C1 [Compound 28, DArg-Arg-Pro-Hyp-Gly-Thi-Ser-DIgl-Nigb-Arg] |  |  |  |  |  | 0.05 micrograms | 6.5 | 48.6% | 
N=C(N)NCCC[C@H](NC(=O)[C@@H]1C[C@@H]2CCCC[C@@H]2N1C(=O)[C@H](NC(=O)[C@H](CO)NC(=O)[C@H](Cc1ccccc1)NC(=O)CNC(=O)[C@@H]1C[C@@H](O)CN1C(=O)[C@@H]1CCCN1C(=O)[C@H](CCCNC(=N)N)NC(=O)[C@@H](CCCNC(=N)N)NC(=O)C12CC3CC(CC(C3)C1)C2)C1Cc2ccccc2C1)C(=O)O [Compound 53, Aca-DArg-Arg-Pro-Hyp-Gly-Phe-Ser-DIglb-Oic-Arg] (Adamantane1carbonyl-[dR]RP[Hyp]GFS[dIgl][Oic]R-OH) |  | 1260 nM | 7.4 | 8.2 |  |  |  |  | 0.0141 nM
N=C(N)NCCC[C@H](NC(=O)[C@@H]1C[C@@H]2CCCC[C@@H]2N1C(=O)[C@H](NC(=O)[C@H](CO)NC(=O)[C@H](Cc1cccs1)NC(=O)CNC(=O)[C@@H]1C[C@@H](O)CN1C(=O)[C@@H]1CCCN1C(=O)[C@H](CCCNC(=N)N)NC(=O)[C@@H](CCCNC(=N)N)NC(=O)CC12CC3CC(CC(C3)C1)C2)C1Cc2ccccc2C1)C(=O)O [Compound 56, Aaa-DArg-Arg-Pro-Hyp-Gly-Thi-Ser-DIglb-Oic-Arg] |  | 692 nM | 7.8 | 7.7 |  |  |  |  | 0.398 nM
COc1cc(C=CC(=O)N[C@H](CCCNC(=N)N)C(=O)N[C@@H](CCCNC(=N)N)C(=O)N2CCC[C@H]2C(=O)N2C[C@H](O)C[C@H]2C(=O)NCC(=O)N[C@@H](Cc2cccs2)C(=O)N[C@@H](CO)C(=O)N[C@@H](C(=O)N2[C@H](C(=O)N[C@@H](CCCNC(=N)N)C(=O)O)C[C@@H]3CCCC[C@@H]32)C2Cc3ccccc3C2)cc(OC)c1O [Compound 60, Sin-DArg-Arg-Pro-Hyp-Gly-Thi-Ser-DIglb-Oic-Arg] |  | 2090 nM | 7.3 | 8.3 |  |  |  |  | 0.0692 nM
Aca-DArg-Arg-Pro-Hyp-Gly-Thi-Ser-DHigb-Oic-Arg [Compound 124] |  |  |  |  |  | 0 micrograms | 7.7 |  | 
DArg-Arg-Pro-Hyp-Gly-Thi-Ser-DIglb-Dic-Arg [Compound 41] |  |  |  |  |  | 50 micrograms |  |  | 
